Measured values published in ChEMBL document CHEMBL1151273, “Cytotoxic furostanol saponins and a megastigmane glucoside from tribulus parvispinus” (J Nat Prod, 2005).
Calls of active or inactive are those of the source. The rule behind the calls is not given here.

What was measured:
U-937 [1] = assay: Cytotoxicity against human U937 cells after 48 hrs by WST1 test; format: functional, cell-based; conditions: U-937, 48 h
HepG2 = assay: Cytotoxicity against human HepG2 cells after 48 hrs by acid phosphatase method; format: functional, cell-based; conditions: HepG2, 48 h
MCF7 = assay: Cytotoxicity against human MCF7 cells after 48 hrs by acid phosphatase method; format: functional, cell-based; conditions: MCF7, 48 h
U-937 [2] = assay: Induction of apoptosis in human U937 cells assessed as total LDH activity at IC50 by spectrophotometric method; format: functional
U-937 [3] = assay: Induction of apoptosis in human U937 cells assessed as hypodiploid region at IC50 measured by propidium iodide incorporation by flow cytometry; format: functional
U-937 [4] = assay: Cytotoxicity against human U937 cells assessed as reduction of proliferation at 0.5 uM after 24 hrs; format: functional, cell-based
U-937 [5] = assay: Cytotoxicity against human U937 cells assessed as reduction of proliferation at 0.1 uM after 48 hrs; format: functional, cell-based
U-937 [6] = assay: Cytotoxicity against human U937 cells assessed as reduction of proliferation at 0.1 uM after 24 hrs; format: functional, cell-based

CC1=CC(=O)CC(C)(C)[C@@]1(O)/C=C/C(O)CO[C@@H]1O[C@H](CO)[C@@H](O)[C@H](O)[C@H]1O (stereo not given in full) [PARVISPINOSIDE C]
IC50 (U-937 [1]): 15 µM | IC50 (HepG2): > 100 µM | IC50 (MCF7): 80 µM

CO[C@]1(CC[C@@H](C)CO[C@@H]2O[C@H](CO)[C@@H](O)[C@H](O)[C@H]2O)O[C@H]2C[C@H]3[C@@H]4CC[C@H]5C[C@@H](O[C@@H]6O[C@H](CO)[C@H](O[C@@H]7O[C@H](CO)[C@@H](O)[C@H](O[C@@H]8OC[C@@H](O)[C@H](O)[C@H]8O)[C@H]7O[C@@H]7O[C@H](CO)[C@H](O)[C@H](O)[C@H]7O)[C@H](O)[C@H]6O)[C@H](O)C[C@]5(C)[C@H]4CC[C@]3(C)[C@H]2[C@@H]1C [22-O-METHYLPARVISPINOSIDE A]
Activity (U-937 [2]): 38% | Activity (U-937 [3]): 9% | IC50 (U-937 [1]): 1 µM | IC50 (HepG2): 30 µM | IC50 (MCF7): 50 µM

C[C@H](CC[C@@]1(O)O[C@H]2C[C@H]3[C@@H]4CC[C@H]5C[C@@H](O[C@@H]6O[C@H](CO)[C@H](O[C@@H]7O[C@H](CO)[C@@H](O)[C@H](O[C@@H]8OC[C@@H](O)[C@H](O)[C@H]8O)[C@H]7O[C@@H]7O[C@H](CO)[C@H](O)[C@H](O)[C@H]7O)[C@H](O)[C@H]6O)CC[C@]5(C)[C@H]4CC[C@]3(C)[C@H]2[C@@H]1C)CO[C@@H]1O[C@H](CO)[C@@H](O)[C@H](O)[C@H]1O [PARVISPINOSIDE B]
Activity (U-937 [4]): Active | Activity (U-937 [5]): Active | Activity (U-937 [2]): 27% | Activity (U-937 [3]): 26% | IC50 (U-937 [1]): 0.5 µM | IC50 (HepG2): > 100 µM | IC50 (MCF7): 94 µM

C[C@@H]1CC[C@@]2(OC1)O[C@H]1C[C@H]3[C@@H]4CC[C@H]5C[C@@H](O[C@@H]6O[C@H](CO)[C@H](O[C@@H]7O[C@H](CO)[C@@H](O)[C@H](O[C@@H]8OC[C@@H](O)[C@H](O)[C@H]8O)[C@H]7O[C@@H]7O[C@H](CO)[C@H](O)[C@H](O)[C@H]7O)[C@H](O)[C@H]6O)CC[C@]5(C)[C@H]4CC[C@]3(C)[C@H]1[C@@H]2C [GITONIN]
Activity (U-937 [5]): Active | Activity (U-937 [6]): Active | Activity (U-937 [2]): 25% | Activity (U-937 [3]): 20% | IC50 (U-937 [1]): 0.1 µM | IC50 (HepG2): 3 µM | IC50 (MCF7): 3 µM

C[C@H](CC[C@@]1(O)O[C@H]2C[C@H]3[C@@H]4CC[C@H]5C[C@@H](O[C@@H]6O[C@H](CO)[C@H](O[C@@H]7O[C@H](CO)[C@@H](O)[C@H](O[C@@H]8OC[C@@H](O)[C@H](O)[C@H]8O)[C@H]7O[C@@H]7O[C@H](CO)[C@H](O)[C@H](O)[C@H]7O)[C@H](O)[C@H]6O)[C@H](O)C[C@]5(C)[C@H]4CC[C@]3(C)[C@H]2[C@@H]1C)CO[C@@H]1O[C@H](CO)[C@@H](O)[C@H](O)[C@H]1O [PARVISPINOSIDE A]
Activity (U-937 [2]): 28% | Activity (U-937 [3]): 32% | IC50 (U-937 [1]): 30 µM | IC50 (HepG2): > 100 µM | IC50 (MCF7): > 100 µM

CO[C@]1(CC[C@@H](C)CO[C@@H]2O[C@H](CO)[C@@H](O)[C@H](O)[C@H]2O)O[C@H]2C[C@H]3[C@@H]4CC[C@H]5C[C@@H](O[C@@H]6O[C@H](CO)[C@H](O[C@@H]7O[C@H](CO)[C@@H](O)[C@H](O[C@@H]8OC[C@@H](O)[C@H](O)[C@H]8O)[C@H]7O[C@@H]7O[C@H](CO)[C@H](O)[C@H](O)[C@H]7O)[C@H](O)[C@H]6O)CC[C@]5(C)[C@H]4CC[C@]3(C)[C@H]2[C@@H]1C [22-O-METHYLPARVISPINOSIDE B]
Activity (U-937 [2]): 50% | Activity (U-937 [3]): 3% | IC50 (U-937 [1]): 2 µM | IC50 (HepG2): 30 µM | IC50 (MCF7): 40 µM

Oc1ccc(/C=C/c2cc(O)cc(O)c2)cc1 [RESVERATROL]
IC50 (U-937 [1]): 17 µM | IC50 (HepG2): 50 µM | IC50 (MCF7): 100 µM
